Test results from the supplement of paper PMC10307832.

Tests used:
Assay in all cases: relative viability (nuclei count vs DMSO), 5 days (fraction); higher = more cells survive
A-427 = test system: A-427
Outline: (§1)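 Each reported value is a median over duplicate plates. It expresses relative viability: treated-well nuclei count divided by vehicle-well nuclei count. Lung cancer cell lines in 1536-well plates were dosed by pin tool a day after seeding, alone with one drug or with a fixed anchor-drug dose plus five library-drug doses (not always all listed) in √10 steps, and nuclei were counted after 5 days.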

HCC-15 = test system: HCC-15
Outline: as §1

HCC-78 = test system: HCC-78
Outline: as §1

HOP-62 = test system: HOP-62
Outline: as §1

LC-2-ad = test system: LC-2-ad
Outline: as §1

LXF-289 = test system: LXF-289
Outline: as §1

NCI-H1734 = test system: NCI-H1734
Outline: as §1

NCI-H1755 = test system: NCI-H1755
Outline: as §1

NCI-H1792 = test system: NCI-H1792
Outline: as §1

NCI-H1915 = test system: NCI-H1915
Outline: as §1

NCI-H1975 = test system: NCI-H1975
Outline: as §1

NCI-H2126 = test system: NCI-H2126
Outline: as §1

NCI-H2228 = test system: NCI-H2228
Outline: as §1

NCI-H2342 = test system: NCI-H2342
Outline: as §1

NCI-H2347 = test system: NCI-H2347
Outline: as §1

NCI-H358 = test system: NCI-H358
Outline: as §1

NCI-H522 = test system: NCI-H522
Outline: as §1

NCI-H647 = test system: NCI-H647
Outline: as §1

PC-3 [JPC-3] = test system: PC-3 [JPC-3]
Outline: as §1

RERF-LC-KJ = test system: RERF-LC-KJ
Outline: as §1

SK-LU-1 = test system: SK-LU-1
Outline: as §1

SW 1573 = test system: SW 1573
Outline: as §1

O=c1cc(-c2cccc3c2Sc2ccccc2S3)oc(N2CCOCC2)c1 + CC(=O)c1c(C)c2cnc(Nc3ccc(N4CCNCC4)cn3)nc2n(C2CCCC2)c1=O [Palbociclib] (partner 0.5 µM)
relative viability (A-427; first compound 0.08 µM): 0.513
relative viability (A-427; first compound 0.253 µM): 0.509
relative viability (A-427; first compound 0.8 µM): 0.49
relative viability (A-427; first compound 2.53 µM): 0.502
relative viability (A-427; first compound 8 µM): 0.548
relative viability (HCC-15; first compound 0.08 µM): 0.796
relative viability (HCC-15; first compound 0.253 µM): 0.778
relative viability (HCC-15; first compound 0.8 µM): 0.79
relative viability (HCC-15; first compound 2.53 µM): 0.695
relative viability (HCC-15; first compound 8 µM): 0.636
relative viability (HCC-78; first compound 0.08 µM): 0.506
relative viability (HCC-78; first compound 0.253 µM): 0.458
relative viability (HCC-78; first compound 0.8 µM): 0.427
relative viability (HCC-78; first compound 2.53 µM): 0.417
relative viability (HCC-78; first compound 8 µM): 0.487
relative viability (HOP-62; first compound 0.08 µM): 0.465
relative viability (HOP-62; first compound 0.253 µM): 0.391
relative viability (HOP-62; first compound 0.8 µM): 0.497
relative viability (HOP-62; first compound 2.53 µM): 0.512
relative viability (HOP-62; first compound 8 µM): 0.54
relative viability (LC-2-ad; first compound 0.08 µM): 0.513
relative viability (LC-2-ad; first compound 0.253 µM): 0.51
relative viability (LC-2-ad; first compound 0.8 µM): 0.469
relative viability (LC-2-ad; first compound 2.53 µM): 0.502
relative viability (LC-2-ad; first compound 8 µM): 0.425
relative viability (LXF-289; first compound 0.08 µM): 0.61
relative viability (LXF-289; first compound 0.253 µM): 0.603
relative viability (LXF-289; first compound 0.8 µM): 0.609
relative viability (LXF-289; first compound 2.53 µM): 0.619
relative viability (LXF-289; first compound 8 µM): 0.642
relative viability (NCI-H1734; first compound 0.08 µM): 0.33
relative viability (NCI-H1734; first compound 0.253 µM): 0.344
relative viability (NCI-H1734; first compound 0.8 µM): 0.414
relative viability (NCI-H1734; first compound 8 µM): 0.357
relative viability (NCI-H1755; first compound 0.08 µM): 0.436
relative viability (NCI-H1755; first compound 0.253 µM): 0.464
relative viability (NCI-H1755; first compound 0.8 µM): 0.463
relative viability (NCI-H1755; first compound 2.53 µM): 0.383
relative viability (NCI-H1755; first compound 8 µM): 0.409
relative viability (NCI-H1792; first compound 0.08 µM): 0.673
relative viability (NCI-H1792; first compound 0.253 µM): 0.847
relative viability (NCI-H1792; first compound 0.8 µM): 0.635
relative viability (NCI-H1792; first compound 2.53 µM): 0.654
relative viability (NCI-H1792; first compound 8 µM): 0.688
relative viability (NCI-H1915; first compound 0.08 µM): 0.549
relative viability (NCI-H1915; first compound 0.253 µM): 0.527
relative viability (NCI-H1915; first compound 0.8 µM): 0.541
relative viability (NCI-H1915; first compound 2.53 µM): 0.509
relative viability (NCI-H1915; first compound 8 µM): 0.497
relative viability (NCI-H1975; first compound 0.08 µM): 0.623
relative viability (NCI-H1975; first compound 0.253 µM): 0.863
relative viability (NCI-H1975; first compound 0.8 µM): 0.465
relative viability (NCI-H1975; first compound 2.53 µM): 0.564
relative viability (NCI-H1975; first compound 8 µM): 0.744
relative viability (NCI-H2126; first compound 0.08 µM): 0.393
relative viability (NCI-H2126; first compound 0.253 µM): 0.361
relative viability (NCI-H2126; first compound 0.8 µM): 0.357
relative viability (NCI-H2126; first compound 2.53 µM): 0.358
relative viability (NCI-H2126; first compound 8 µM): 0.357
relative viability (NCI-H2228; first compound 0.08 µM): 0.766
relative viability (NCI-H2228; first compound 0.253 µM): 0.766
relative viability (NCI-H2228; first compound 0.8 µM): 0.901
relative viability (NCI-H2228; first compound 2.53 µM): 0.608
relative viability (NCI-H2228; first compound 8 µM): 0.758
relative viability (NCI-H2342; first compound 0.08 µM): 0.52
relative viability (NCI-H2342; first compound 0.253 µM): 0.548
relative viability (NCI-H2342; first compound 0.8 µM): 0.515
relative viability (NCI-H2342; first compound 2.53 µM): 0.522
relative viability (NCI-H2342; first compound 8 µM): 0.575
relative viability (NCI-H2347; first compound 0.08 µM): 0.42
relative viability (NCI-H2347; first compound 0.253 µM): 0.483
relative viability (NCI-H2347; first compound 0.8 µM): 0.453
relative viability (NCI-H2347; first compound 2.53 µM): 0.39
relative viability (NCI-H2347; first compound 8 µM): 0.483
relative viability (NCI-H358; first compound 0.08 µM): 0.135
relative viability (NCI-H358; first compound 0.253 µM): 0.144
relative viability (NCI-H358; first compound 0.8 µM): 0.13
relative viability (NCI-H358; first compound 2.53 µM): 0.134
relative viability (NCI-H358; first compound 8 µM): 0.152
relative viability (NCI-H522; first compound 0.08 µM): 1.13
relative viability (NCI-H522; first compound 0.253 µM): 1.07
relative viability (NCI-H522; first compound 0.8 µM): 1.01
relative viability (NCI-H522; first compound 2.53 µM): 1.04
relative viability (NCI-H522; first compound 8 µM): 1
relative viability (NCI-H647; first compound 0.08 µM): 0.438
relative viability (NCI-H647; first compound 0.253 µM): 0.487
relative viability (NCI-H647; first compound 0.8 µM): 0.357
relative viability (NCI-H647; first compound 2.53 µM): 0.296
relative viability (NCI-H647; first compound 8 µM): 0.391
relative viability (PC-3 [JPC-3]; first compound 0.08 µM): 0.471
relative viability (PC-3 [JPC-3]; first compound 0.253 µM): 0.54
relative viability (PC-3 [JPC-3]; first compound 0.8 µM): 0.559
relative viability (PC-3 [JPC-3]; first compound 2.53 µM): 0.482
relative viability (PC-3 [JPC-3]; first compound 8 µM): 0.584
relative viability (RERF-LC-KJ; first compound 0.08 µM): 1.11
relative viability (RERF-LC-KJ; first compound 0.253 µM): 1.32
relative viability (RERF-LC-KJ; first compound 0.8 µM): 1.08
relative viability (RERF-LC-KJ; first compound 2.53 µM): 1.04
relative viability (RERF-LC-KJ; first compound 8 µM): 0.971
relative viability (SK-LU-1; first compound 0.08 µM): 0.397
relative viability (SK-LU-1; first compound 0.253 µM): 0.354
relative viability (SK-LU-1; first compound 0.8 µM): 0.418
relative viability (SK-LU-1; first compound 2.53 µM): 0.327
relative viability (SK-LU-1; first compound 8 µM): 0.368
relative viability (SW 1573; first compound 0.08 µM): 0.426
relative viability (SW 1573; first compound 0.253 µM): 0.414
relative viability (SW 1573; first compound 0.8 µM): 0.448
relative viability (SW 1573; first compound 2.53 µM): 0.377
relative viability (SW 1573; first compound 8 µM): 0.362
